Measured values taken from patent US8222254B2, “1, 2, 4-triazole derivatives as serotonergic modulators” (Prosarix Limited, priority 2007, dated 2012).
Blank lines part the entries; values can stand above or below the compound they belong to.

Tests used:
5HT1A = target: T1, 5HT1A (Homo sapiens, UniProt P08908); assay: GTPγS assay for 5HT1A agonist activity; type: biochemical; conditions: bound [35S]GTPγS relative to serotonin response
T1 construct: expressed in transfected cells; host or cells: CHO cells (Chinese hamster)
T1 sequence (P08908 1-422): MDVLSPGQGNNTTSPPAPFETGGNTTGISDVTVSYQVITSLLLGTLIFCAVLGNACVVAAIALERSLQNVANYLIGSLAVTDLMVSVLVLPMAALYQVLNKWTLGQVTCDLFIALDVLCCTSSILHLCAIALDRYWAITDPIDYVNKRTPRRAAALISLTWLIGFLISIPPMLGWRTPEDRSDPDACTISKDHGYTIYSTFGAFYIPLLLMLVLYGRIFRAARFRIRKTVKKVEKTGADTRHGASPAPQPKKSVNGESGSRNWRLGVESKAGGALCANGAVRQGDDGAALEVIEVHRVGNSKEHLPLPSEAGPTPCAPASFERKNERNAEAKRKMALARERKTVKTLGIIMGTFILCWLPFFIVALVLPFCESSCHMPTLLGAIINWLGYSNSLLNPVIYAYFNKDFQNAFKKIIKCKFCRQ
Protocol: Selected compounds were tested for 5HT1A agonist activity using a GTPγS assay. GTPγS binding for 5HT1A was determined according to the procedures of Adlersberg et al. J Neurosci. Res. 2000, 61(6): 674-685. Compounds were incubated for 30 minutes at 30° C. in 20 mM HEPES, pH7.4, 100 mM NaCl, 10 mM MgCl2, 1 mM DTT, 1 mM EDTA with human CHO cells Chinese hamster. Quantitation of bound [^35S] GTPγS was determined with agonist significance criteria of >50% increase in bound [^35S] GTPγS relative to serotonin response.

α1-adrenergic receptor = assay: α1-Adrenergic Receptor Assay, [3H]Prazosin competition binding; design: species or system rat; conditions: selectivity 5HT1A over α1-adrenergic
Protocol: The determination of binding of the ligand with α1-adrenergic receptor was carried out according to the procedures described in Greengrass P and Bremner R. Eur. J. Pharmacol. 1979, 55: 323-326.
For competition binding, radiolabelled 0.25 nM [3H]Prazosin was incubated for 30 minutes at 25° C. with al transfected wisatar rat cerebral cortex cell membranes in 50 mM Tris-HCl, pH7.4, 0.1% Ascorbic acid, 10 mM Pargyline and increasing concentrations of test compound. The non specific ligand used was 0.1 uM Prazosin. Significance criteria was 50% of max stimulation or inhibition.

dopamine D2L receptor = target: T2, dopamine D2L receptor (Homo sapiens, UniProt P14416); assay: Dopamine D2 Receptor Assay, [3H]Spiperone competition binding; conditions: selectivity 5HT1A over dopamine D2
T2 construct: expressed in transfected cells; host or cells: CHO cells
Protocol: The determination of binding of the ligand with dopamine D2L receptor was carried out according to the procedures described in Grandy et al. Proc. Natl. Acad. Sci. 1989, 86: 9762-9766.
For competition binding, radiolabelled 0.16 nM [3H]Spiperone was incubated for 120 minutes at 25° C. with D2L transfected human recombinant CHO cells in 50 mM Tris-HCl, pH7.4, 150 mM NaCl, 1.4 mM Ascorbic acid, 0.001% BSA and increasing concentrations of test compound. The non-specific ligand used was […] haloperidol. Significance criteria was 50% of max stimulation or inhibition.

[1] = Metabolic stability in rat liver microsomes; type: in vitro ADME; conditions: pH 7.4
[2] = Metabolic stability in human liver microsomes; type: in vitro ADME; conditions: pH 7.4, 1 μM compound, 0.3 mg/mL microsomes, pH7.4, 37° C.
Protocol: Metabolic stability of selected compounds in human liver microsomes was assessed using the procedure described by Kuhnz and Gieschen, Drug Metab. Dispos. 1998, 26: 1120-1127. Compounds (1 μM) were measured by LC/MS following 0 and 60 minute incubations with human liver microsomes (0.3 mg/mL) at pH7.4 and 37° C.

T2 sequence (P14416 whole entry): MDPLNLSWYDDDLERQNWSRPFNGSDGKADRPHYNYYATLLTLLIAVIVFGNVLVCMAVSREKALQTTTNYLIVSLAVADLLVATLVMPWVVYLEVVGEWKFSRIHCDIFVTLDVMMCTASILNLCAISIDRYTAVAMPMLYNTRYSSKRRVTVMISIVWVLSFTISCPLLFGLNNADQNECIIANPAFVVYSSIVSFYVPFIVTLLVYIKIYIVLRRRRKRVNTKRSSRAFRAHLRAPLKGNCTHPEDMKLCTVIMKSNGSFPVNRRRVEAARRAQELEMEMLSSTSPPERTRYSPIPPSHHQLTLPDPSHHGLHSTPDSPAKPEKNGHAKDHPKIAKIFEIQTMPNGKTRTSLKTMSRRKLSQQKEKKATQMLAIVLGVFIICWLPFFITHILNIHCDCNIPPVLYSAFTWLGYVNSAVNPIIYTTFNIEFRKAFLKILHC

affinity for 5HT1A relative to affinity for α1-adrenergic receptors (α1-adrenergic receptor): more than fifty times greater
SMILES: CC(=O)Nc1cccc(N2CCN(CCCc3n[nH]c(=O)n3CC3CCCCC3)CC2)c1 [Example 39, N-(3-{4-[3-(4-Cyclohexylmethyl-5-oxo-4,5-dihydro-1H-[1,2,4]triazol-3-yl)-propyl]-piperazin-1-yl}-phenyl)-acetamide]

affinity for 5HT1A relative to affinity for α1-adrenergic receptors (α1-adrenergic receptor): more than fifty times greater
affinity for 5HT1A relative to affinity for dopamine D2 receptors (dopamine D2L receptor): more than fifty times greater
SMILES: COc1ccccc1N1CCN(C(C)Cc2nn(C)c(=O)n2CC2CCCCC2)CC1 (stereo not drawn) [Example 37, 4-(Cyclohexylmethyl)-5-{2-[4-(2-methoxyphenyl)piperazin-1-yl]propyl}-2-methyl-2,4-dihydro-3H-1,2,4-triazol-3-one]

EC50 (5HT1A): < 200 nM
affinity for 5HT1A relative to affinity for dopamine D2 receptors (dopamine D2L receptor): more than a thousand times greater
SMILES: CC(=O)Nc1cccc(N2CCN(CCc3nn(C)c(=O)n3CC3CCCCC3)CC2)c1 [Example 41, N-[3-(4-{2-[4-(Cyclohexylmethyl)-1-methyl-5-oxo-4,5-dihydro-1H-1,2,4-triazol-3-yl]ethyl}piperazino)phenyl]acetamide]

EC50 (5HT1A): < 200 nM
SMILES: COc1ccccc1N1CCN(CCc2nn(C)c(=O)n2CC2CCCCC2)CC1 [Example 42, 4-(Cyclohexylmethyl)-5-{2-[4-(2-methoxyphenyl)piperazino]ethyl}-2-methyl-2,4-dihydro-3H-1,2,4-triazol-3-one]

affinity for 5HT1A relative to affinity for α1-adrenergic receptors (α1-adrenergic receptor): more than fifty times greater
affinity for 5HT1A relative to affinity for dopamine D2 receptors (dopamine D2L receptor): more than fifty times greater
SMILES: CC(=O)Nc1cccc(N2CCN(CCc3n[nH]c(=O)n3CC3CCCCC3)CC2)c1 [Example 38, N-[3-(4-{2-[4-(Cyclohexylmethyl)-5-oxo-4,5-dihydro-1H-1,2,4-triazol-3-yl]ethyl}piperazin-1-yl)phenyl]acetamide]

EC50 (5HT1A): < 200 nM
SMILES: COc1ccccc1N1CCN(CCc2n[nH]c(=O)n2-c2ccc(Cl)c(Cl)c2)CC1 [Example 33, 4-(3,4-Dichloro-phenyl)-5-{2-[4-(2-methoxy-phenyl)-piperazin-1-yl]-ethyl}-2,4-dihydro-[1,2,4]triazol-3-one]

Continued, compound first:

SMILES: COc1ccccc1N1CCN(CCc2n[nH]c(=O)n2C2CCCCCCC2)CC1 [Example 10, 4-Cyclooctyl-5-{2-[4-(2-methoxyphenyl)piperazino]ethyl}-2,4-dihydro-3H-1,2,4-triazol-3-one]
EC50 (5HT1A): < 200 nM

SMILES: COc1ccccc1N1CCN(CCc2n[nH]c(=O)n2CC2CCCCC2)CC1 [Example 17, 4-(Cyclohexylmethyl)-5-{2-[4-(2-methoxyphenyl)piperazino]ethyl}-2,4-dihydro-3H-1,2,4-triazol-3-one]
half-life at 1 μM [1]: ≥ 60 min
half-life at 1 μM [2]: ≥ 60 min

SMILES: COc1ccccc1N1CCN(CCc2n[nH]c(=O)n2Cc2ccc(Cl)c(Cl)c2)CC1 [Example 21, 4-(3,4-Dichloro-benzyl)-5-{2-[4-(2-methoxy-phenyl)-piperazin-1-yl]-ethyl}-2,4-dihydro-[1,2,4]triazol-3-one]
EC50 (5HT1A): < 200 nM

SMILES: COc1ccccc1N1CCN(CCc2n[nH]c(=O)n2C(c2ccccc2)c2ccccc2)CC1 [Example 28, 4-Benzhydryl-5-{2-[4-(2-methoxy-phenyl)-piperazin-1-yl]-ethyl}-2,4-dihydro-[1,2,4]triazol-3-one]
EC50 (5HT1A): < 200 nM

SMILES: COc1ccccc1N1CCN(CCc2n[nH]c(=O)n2Cc2ccccc2)CC1 [Example 13, 4-Benzyl-5-{2-[4-(2-methoxy-phenyl)-piperazin-1-yl]-ethyl}-2,4-dihydro-[1,2,4]triazol-3-one]
half-life at 1 μM [1]: ≥ 60 min
half-life at 1 μM [2]: ≥ 60 min

SMILES: COc1ccccc1N1CCN(CCc2n[nH]c(=O)n2Cc2cccc(F)c2)CC1 [Example 26, 4-(3-Fluoro-benzyl)-5-{2-[4-(2-methoxy-phenyl)-piperazin-1-yl]-ethyl}-2,4-dihydro-[1,2,4]triazol-3-one]
half-life at 1 μM [1]: ≥ 60 min
half-life at 1 μM [2]: ≥ 60 min
